Data reported in ChEMBL document CHEMBL1201862, “PubChem BioAssay data set” (2004).
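Results reflect a 48-hour exposure of cells in 96-well plates to compound at five concentrations. GI50 marks 50% less growth.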 Calls of active or inactive are those of the source. Rule as the data show it: active = GI50 up to about 1.1 µM and inactive = higher.

Key:
Assay in all cases: DTP human tumour cell line panel, 48 h
HT-29 = test system: HT-29
CAKI-1 = test system: CAKI-1
NCI-H522 = test system: NCI-H522
KM12 = test system: KM12
MDA-N = test system: MDA-N
SNB-19 = test system: SNB-19
IGROV-1 = test system: IGROV-1
SK-MEL-28 = test system: SK-MEL-28
K562 = test system: K562
UACC-62 = test system: UACC-62
786-0 = test system: 786-0
HL-60 = test system: HL-60
OVCAR-8 = test system: OVCAR-8
MDA-MB-231 = test system: MDA-MB-231
SF-295 = test system: SF-295
SR = test system: SR
NCI/ADR-RES = test system: NCI/ADR-RES
HOP-92 = test system: HOP-92
SK-OV-3 = test system: SK-OV-3
T47D = test system: T47D
MDA-MB-435 = test system: MDA-MB-435
RPMI-8226 = test system: RPMI-8226
OVCAR-5 = test system: OVCAR-5
OVCAR-3 = test system: OVCAR-3
M14 = test system: M14
OVCAR-4 = test system: OVCAR-4
CCRF-CEM = test system: CCRF-CEM
SNB-75 = test system: SNB-75
EKVX = test system: EKVX
SF-268 = test system: SF-268
A498 = test system: A498
NCI-H23 = test system: NCI-H23
NCI-H460 = test system: NCI-H460
HCC 2998 = test system: HCC 2998
TK-10 = test system: TK-10
UO-31 = test system: UO-31
NCI-H226 = test system: NCI-H226
SF-539 = test system: SF-539
SW-620 = test system: SW-620
COLO 205 = test system: COLO 205
U-251 = test system: U-251
UACC-257 = test system: UACC-257
LOX IMVI = test system: LOX IMVI
HCT-15 = test system: HCT-15
SK-MEL-2 = test system: SK-MEL-2
DU-145 = test system: DU-145
MOLT-4 = test system: MOLT-4
Hs-578T = test system: Hs-578T
Malme-3M = test system: Malme-3M
A549 = test system: A549
HCT-116 = test system: HCT-116
SN12C = test system: SN12C
RXF 393 = test system: RXF 393
SK-MEL-5 = test system: SK-MEL-5
ACHN = test system: ACHN
MCF7 = test system: MCF7
HOP-62 = test system: HOP-62
PC-3 = test system: PC-3

## O=c1[nH]nc(-c2ccccc2)n1Nc1ccccc1
HT-29
  GI50: > 100 µM (inactive)
CAKI-1
  GI50: > 100 µM (inactive)
NCI-H522
  GI50: > 100 µM (inactive)
KM12
  GI50: > 100 µM (inactive)
MDA-N
  GI50: > 100 µM (inactive)
SNB-19
  GI50: > 100 µM (inactive)
IGROV-1
  GI50: > 100 µM (inactive)
SK-MEL-28
  GI50: > 100 µM (inactive)
K562
  GI50: > 100 µM (inactive)
UACC-62
  GI50: > 100 µM (inactive)
786-0
  GI50: > 100 µM (inactive)
HL-60
  GI50: > 100 µM (inactive)
OVCAR-8
  GI50: > 100 µM (inactive)
MDA-MB-231
  GI50: > 100 µM (inactive)
SF-295
  GI50: > 100 µM (inactive)
SR
  GI50: > 100 µM (inactive)
NCI/ADR-RES
  GI50: > 100 µM (inactive)
HOP-92
  GI50: > 100 µM (inactive)
SK-OV-3
  GI50: > 100 µM (inactive)
T47D
  GI50: > 100 µM (inactive)
MDA-MB-435
  GI50: > 100 µM (inactive)
RPMI-8226
  GI50: > 100 µM (inactive)
OVCAR-5
  GI50: > 100 µM (inactive)
OVCAR-3
  GI50: > 100 µM (inactive)
M14
  GI50: > 100 µM (inactive)
OVCAR-4
  GI50: > 100 µM (inactive)
CCRF-CEM
  GI50: > 100 µM (inactive)
SNB-75
  GI50: > 100 µM (inactive)
EKVX
  GI50: > 100 µM (inactive)
SF-268
  GI50: > 100 µM (inactive)
A498
  GI50: > 100 µM (inactive)
NCI-H23
  GI50: > 100 µM (inactive)
NCI-H460
  GI50: > 100 µM (inactive)
HCC 2998
  GI50: > 100 µM (inactive)
TK-10
  GI50: > 100 µM (inactive)
UO-31
  GI50: > 100 µM (inactive)
NCI-H226
  GI50: > 100 µM (inactive)
SF-539
  GI50: > 100 µM (inactive)
SW-620
  GI50: > 100 µM (inactive)
COLO 205
  GI50: > 100 µM (inactive)
U-251
  GI50: > 100 µM (inactive)
UACC-257
  GI50: > 100 µM (inactive)
LOX IMVI
  GI50: > 100 µM (inactive)
HCT-15
  GI50: > 100 µM
SK-MEL-2
  GI50: > 100 µM (inactive)
DU-145
  GI50: > 100 µM (inactive)
MOLT-4
  GI50: > 100 µM (inactive)
Hs-578T
  GI50: > 100 µM (inactive)
Malme-3M
  GI50: > 100 µM (inactive)
A549
  GI50: > 100 µM (inactive)
HCT-116
  GI50: > 100 µM (inactive)
SN12C
  GI50: > 100 µM (inactive)
RXF 393
  GI50: > 100 µM (inactive)
SK-MEL-5
  GI50: > 100 µM (inactive)
ACHN
  GI50: > 100 µM (inactive)

## N[C@@H](Cc1ccc2oc3cc(=O)c4ccccc4c-3nc2c1)C(=O)O
HT-29
  GI50: 31.5 µM (inactive)
CAKI-1
  GI50: > 100 µM (inactive)
NCI-H522
  GI50: 39.7 µM (inactive)
KM12
  GI50: > 100 µM (inactive)
MDA-N
  GI50: 16.6 µM (inactive)
SNB-19
  GI50: 26.4 µM (inactive)
IGROV-1
  GI50: > 100 µM (inactive)
SK-MEL-28
  GI50: 62.4 µM (inactive)
K562
  GI50: > 100 µM (inactive)
UACC-62
  GI50: 27.4 µM (inactive)
MCF7
  GI50: 2.36 µM (inactive)
786-0
  GI50: > 100 µM (inactive)
HL-60
  GI50: > 100 µM (inactive)
OVCAR-8
  GI50: 49 µM (inactive)
MDA-MB-231
  GI50: > 100 µM (inactive)
SF-295
  GI50: 30.4 µM (inactive)
SR
  GI50: 24.7 µM (inactive)
HOP-62
  GI50: 21.9 µM (inactive)
NCI/ADR-RES
  GI50: > 100 µM (inactive)
HOP-92
  GI50: > 100 µM (inactive)
SK-OV-3
  GI50: > 100 µM (inactive)
T47D
  GI50: > 100 µM (inactive)
MDA-MB-435
  GI50: 17 µM (inactive)
RPMI-8226
  GI50: > 100 µM (inactive)
OVCAR-5
  GI50: > 100 µM (inactive)
OVCAR-3
  GI50: 27.2 µM (inactive)
M14
  GI50: 15.3 µM (inactive)
OVCAR-4
  GI50: > 100 µM (inactive)
CCRF-CEM
  GI50: 38.5 µM (inactive)
SNB-75
  GI50: 15 µM (inactive)
EKVX
  GI50: > 100 µM (inactive)
SF-268
  GI50: > 100 µM (inactive)
A498
  GI50: > 100 µM (inactive)
NCI-H23
  GI50: 13.4 µM (inactive)
NCI-H460
  GI50: 31.1 µM (inactive)
TK-10
  GI50: > 100 µM (inactive)
UO-31
  GI50: > 100 µM (inactive)
NCI-H226
  GI50: 34 µM (inactive)
SF-539
  GI50: 74 µM (inactive)
SW-620
  GI50: > 100 µM (inactive)
COLO 205
  GI50: 11.5 µM (inactive)
U-251
  GI50: 36.3 µM (inactive)
UACC-257
  GI50: 18.1 µM (inactive)
LOX IMVI
  GI50: 37.8 µM (inactive)
HCT-15
  GI50: 57.4 µM
DU-145
  GI50: 19.5 µM (inactive)
MOLT-4
  GI50: 40.7 µM (inactive)
Hs-578T
  GI50: 45.8 µM (inactive)
Malme-3M
  GI50: 3.37 µM (inactive)
A549
  GI50: 40.2 µM (inactive)
HCT-116
  GI50: > 100 µM (inactive)
SN12C
  GI50: 55.5 µM (inactive)
RXF 393
  GI50: > 100 µM (inactive)
SK-MEL-5
  GI50: 11.7 µM (inactive)
ACHN
  GI50: 48.2 µM (inactive)

## CC(C)C1=CC23CCC4C(C)(C(=O)O)CCCC4(C)C2CC1C1C(=O)N(c2ccc(N4C(=O)C5C6CC7C8(C)CCCC(C)(C(=O)O)C8CCC7(C=C6C(C)C)C5C4=O)cc2)C(=O)C13 (stereo not drawn)
HT-29
  GI50: 2.45 µM (inactive)
NCI-H522
  GI50: 4.98 µM (inactive)
KM12
  GI50: 4.17 µM (inactive)
MDA-N
  GI50: 4.43 µM (inactive)
SNB-19
  GI50: 4.75 µM (inactive)
SK-MEL-28
  GI50: 4.49 µM (inactive)
K562
  GI50: 4.35 µM (inactive)
MCF7
  GI50: 3.33 µM (inactive)
786-0
  GI50: 13.1 µM (inactive)
HL-60
  GI50: 3.4 µM (inactive)
OVCAR-8
  GI50: 4.89 µM (inactive)
MDA-MB-231
  GI50: 4.58 µM (inactive)
SR
  GI50: 3.59 µM (inactive)
HOP-62
  GI50: 5.12 µM (inactive)
HOP-92
  GI50: 14.7 µM (inactive)
T47D
  GI50: 12.1 µM (inactive)
MDA-MB-435
  GI50: 3.68 µM (inactive)
RPMI-8226
  GI50: 3.96 µM (inactive)
OVCAR-5
  GI50: 10.3 µM (inactive)
OVCAR-3
  GI50: 5.71 µM (inactive)
M14
  GI50: 4.16 µM (inactive)
OVCAR-4
  GI50: 10.4 µM (inactive)
CCRF-CEM
  GI50: 3.85 µM (inactive)
EKVX
  GI50: 4.09 µM (inactive)
SF-268
  GI50: 4.7 µM (inactive)
A498
  GI50: 11.2 µM (inactive)
NCI-H23
  GI50: 3.79 µM (inactive)
HCC 2998
  GI50: 4.41 µM (inactive)
TK-10
  GI50: 16.4 µM (inactive)
UO-31
  GI50: 18.5 µM (inactive)
NCI-H226
  GI50: 3.45 µM (inactive)
SF-539
  GI50: 4.3 µM (inactive)
SW-620
  GI50: 8.41 µM (inactive)
COLO 205
  GI50: 3.47 µM (inactive)
U-251
  GI50: 4.28 µM (inactive)
PC-3
  GI50: 3.2 µM (inactive)
HCT-15
  GI50: 12.6 µM
SK-MEL-2
  GI50: 13.5 µM (inactive)
DU-145
  GI50: 4.71 µM (inactive)
MOLT-4
  GI50: 3.51 µM (inactive)
Hs-578T
  GI50: 6.22 µM (inactive)
Malme-3M
  GI50: 14.1 µM (inactive)
A549
  GI50: 6.1 µM (inactive)
HCT-116
  GI50: 3.38 µM (inactive)
SN12C
  GI50: 4.46 µM (inactive)
RXF 393
  GI50: 11.7 µM (inactive)
SK-MEL-5
  GI50: 3.44 µM (inactive)
ACHN
  GI50: 5.9 µM (inactive)
